{
  "source": "patent US11254688B2",
  "about": "(Boehringer Ingelheim International GmbH, priority 2018, dated 2022)",
  "data": [
    {"biological_target": "T1, hGOAT (Homo sapiens, UniProt Q96T53)", "T1 construct": "expressed in transfected cells; host or cells: HEK293 (Hek293 hGOAT/PPGhrl Clone #1B8)", "T1 sequence (Q96T53 1-435)": "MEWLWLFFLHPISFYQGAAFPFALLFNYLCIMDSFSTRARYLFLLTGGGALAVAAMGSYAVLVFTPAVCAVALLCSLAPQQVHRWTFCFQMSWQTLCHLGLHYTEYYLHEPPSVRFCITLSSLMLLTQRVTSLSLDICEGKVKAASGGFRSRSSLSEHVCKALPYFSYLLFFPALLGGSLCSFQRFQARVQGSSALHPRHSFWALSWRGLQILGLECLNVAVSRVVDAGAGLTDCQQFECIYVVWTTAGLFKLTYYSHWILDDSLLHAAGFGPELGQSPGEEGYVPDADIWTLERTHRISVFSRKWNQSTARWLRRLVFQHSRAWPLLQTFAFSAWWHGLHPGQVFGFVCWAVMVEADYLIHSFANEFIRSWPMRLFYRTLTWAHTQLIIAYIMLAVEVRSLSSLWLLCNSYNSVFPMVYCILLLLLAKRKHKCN", "assay": "Determination of hGOAT activity in HEK293 cells after incubation with test compound (acyl-ghrelin ELISA)", "type": "cell-based", "conditions": "HEK293 cells stably transfected with preproghrelin and human GOAT; octanoate-BSA 100 μM; 5 hours incubation; acyl-ghrelin in medium by ELISA; 8 compound concentrations", "units": {"IC50": "nM"}, "values": [
      {"compound": "Cc1nc2nonc2c(N)c1Cc1ccc(C(=O)Nc2cn(C)nc2C(F)(F)F)cc1", "note": "[Compound 14.7, 4-({7-Amino-5-methyl-[1,2,5]oxadiazolo[3,4-b]pyridin-6-yl}methyl)-N-[1-methyl-3-(trifluoromethyl)-1H-pyrazol-4-yl]benzamide]", "IC50": 1.83},
      {"compound": "Cc1nc2nonc2c(N)c1Cc1ccc(OC(F)(F)F)c(Br)c1", "note": "[Compound 2.14, 6-{[3-Bromo-4-(trifluoromethoxy)phenyl]methyl}-5-methyl-[1,2,5]oxadiazolo[3,4-b]pyridin-7-amine]", "IC50": 0.096},
      {"compound": "Cc1nc2nonc2c(N)c1Cc1cccc(Br)c1", "note": "[Compound 2.6, 6-[(3-Bromophenyl)methyl]-5-methyl-[1,2,5]oxadiazolo[3,4-b]pyridin-7-amine]", "IC50": 1.4},
      {"compound": "Cc1nc2nonc2c(N)c1Cc1ccc(C#N)c(C#N)c1", "note": "[Compound 4.59, 4-({7-Amino-5-methyl-[1,2,5]oxadiazolo[3,4-b]pyridin-6-yl}methyl)benzene-1,2-dicarbonitrile]", "IC50": 2.51},
      {"compound": "Cc1nc2nonc2c(N)c1Cc1ccc(C2(C(N)=O)CC2)nc1", "note": "[Compound 19.1, 1-[5-({7-Amino-5-methyl-[1,2,5]oxadiazolo[3,4-b]pyridin-6-yl}methyl)pyridin-2-yl]cyclopropane-1-carboxamide]", "IC50": 4.53},
      {"compound": "COC(=O)c1cn2cc(Cc3c(C)nc4nonc4c3N)ccc2n1", "note": "[Compound 4.23, Methyl 6-({7-amino-5-methyl-[1,2,5]oxadiazolo[3,4-b]pyridin-6-yl}methyl)imidazo[1,2-a]pyridine-2-carboxylate]", "IC50": 7.76},
      {"compound": "Cc1nc2nonc2c(N)c1Cc1ccc(CO)cc1", "note": "[Compound 17.1, [4-({7-Amino-5-methyl-[1,2,5]oxadiazolo[3,4-b]pyridin-6-yl}methyl)phenyl]methanol]", "IC50": 0.726},
      {"compound": "Cc1nc2nonc2c(N)c1Cc1ccc(S(C)(=O)=O)cc1", "note": "[Compound 2.12, 6-[(4-Methanesulfonylphenyl)methyl]-5-methyl-[1,2,5]oxadiazolo[3,4-b]pyridin-7-amine]", "IC50": 0.49},
      {"compound": "Cc1nc2nonc2c(N)c1Cc1ccc(C2(C(=O)O)CC2)nc1", "note": "[Compound 19.2, 1-[5-({7-Amino-5-methyl-[1,2,5]oxadiazolo[3,4-b]pyridin-6-yl}methyl)pyridin-2-yl]cyclopropane-1-carboxylic Acid]", "IC50": 8.42},
      {"compound": "CNC(=O)c1ccc(Cc2c(C)nc3nonc3c2N)cc1", "note": "[Compound 14.18, 4-({7-Amino-5-methyl-[1,2,5]oxadiazolo[3,4-b]pyridin-6-yl}methyl)-N-methylbenzamide]", "IC50": 7.77},
      {"compound": "Cc1nc2nonc2c(N)c1C(=O)c1ccc(C(F)(F)F)cc1", "note": "[Compound 3.1, 5-Methyl-6-[4-(trifluoromethyl)benzoyl]-[1,2,5]oxadiazolo[3,4-b]pyridin-7-amine]", "IC50": 5.83},
      {"compound": "Cc1nc2nonc2c(N)c1Cc1ccc(OC(F)(F)F)c(C(N)=O)c1", "note": "[Compound 15.2, 5-({7-Amino-5-methyl-[1,2,5]oxadiazolo[3,4-b]pyridin-6-yl}methyl)-2-(trifluoromethoxy)benzamide]", "IC50": 0.096},
      {"compound": "Cc1nc2nonc2c(N)c1Cc1ccccc1", "note": "[Compound 2.16, 6-Benzyl-5-methyl-[1,2,5]oxadiazolo[3,4-b]pyridin-7-amine]", "IC50": 3.03},
      {"compound": "Cc1nc2nonc2c(N)c1Cc1ccc(C#N)c(F)c1", "note": "[Compound 4.31, 4-({7-Amino-5-methyl-[1,2,5]oxadiazolo[3,4-b]pyridin-6-yl}methyl)-2-fluorobenzonitrile]", "IC50": 0.487},
      {"compound": "Cc1nc2nonc2c(N)c1Cc1ccc(OCC2(C)COC2)nc1", "note": "[Compound 21.11, 5-Methyl-6-({6-[(3-methyloxetan-3-yl)methoxy]pyridin-3-yl}methyl)-[1,2,5]oxadiazolo[3,4-b]pyridin-7-amine]", "IC50": 1.92},
      {"compound": "Cc1nc2nonc2c(N)c1Cc1ccc(OC(F)F)nc1", "note": "[Compound 4.16, 6-{[6-(Difluoromethoxy)pyridin-3-yl]methyl}-5-methyl-[1,2,5]oxadiazolo[3,4-b]pyridin-7-amine]", "IC50": 0.642},
      {"compound": "Cc1nc2nonc2c(N)c1Cc1ccc(C#N)c(Br)c1", "note": "[Compound 4.45, 4-(7-Amino-5-methyl-[1,2,5]oxadiazolo[3,4-b]pyridin-6-ylmethyl)-2-bromo-benzonitrile]", "IC50": 0.233},
      {"compound": "Cc1nc2nonc2c(N)c1Cc1ccc(-c2ccco2)nc1", "note": "[Compound 12.9, 6-{[6-(Furan-2-yl)pyridin-3-yl]methyl}-5-methyl-[1,2,5]oxadiazolo[3,4-b]pyridin-7-amine]", "IC50": 1.49},
      {"compound": "Cc1nc2nonc2c(N)c1Cc1ccc(I)cc1", "note": "[Compound 1.4, 6-[(4-Iodophenyl)methyl]-5-methyl-[1,2,5]oxadiazolo[3,4-b]pyridin-7-amine]", "IC50": 0.127},
      {"compound": "Cc1nc2nonc2c(N)c1Cc1ccc(-c2ccc(C#N)s2)nc1", "note": "[Compound 12.5, 5-[5-(7-Amino-5-methyl-[1,2,5]oxadiazolo[3,4-b]pyridin-6-ylmethyl)-pyridin-2-yl]-thiophene-2-carbonitrile]", "IC50": 3.66},
      {"compound": "Nc1c(Cc2ccc(C(F)(F)F)cc2)c(Br)nc2nonc12", "note": "[Compound 24.1, 5-Bromo-6-{[4-(trifluoromethyl)phenyl]methyl}-[1,2,5]oxadiazolo[3,4-b]pyridin-7-amine]", "IC50": 0.475},
      {"compound": "Cc1nc2nonc2c(N)c1Cc1ccc(C(=O)NCc2ccnnc2)cc1", "note": "[Compound 14.14, 4-({7-Amino-5-methyl-[1,2,5]oxadiazolo[3,4-b]pyridin-6-yl}methyl)-N-[(pyridazin-4-yl)methyl]benzamide]", "IC50": 5.55},
      {"compound": "Cc1nc2nonc2c(N)c1Cc1ccc(C#N)c(OCCC(F)(F)F)c1", "note": "[Compound 21.4, 4-({7-Amino-5-methyl-[1,2,5]oxadiazolo[3,4-b]pyridin-6-yl}methyl)-2-(3,3,3-trifluoropropoxy)benzonitrile]", "IC50": 0.786},
      {"compound": "Cc1nc2nonc2c(N)c1Cc1ccc(Cl)nc1C(F)F", "note": "[Compound 25.1, 6-{[6-Chloro-2-(difluoromethyl)pyridin-3-yl]methyl}-5-methyl-[1,2,5]oxadiazolo[3,4-b]pyridin-7-amine]", "IC50": 3.5},
      {"compound": "COc1cc(Cc2c(Cl)nc3nonc3c2N)ccc1C#N", "note": "[Compound 23.7, 4-({7-Amino-5-chloro-[1,2,5]oxadiazolo[3,4-b]pyridin-6-yl}methyl)-2-methoxybenzonitrile]", "IC50": 0.178},
      {"compound": "Cc1nc2nonc2c(N)c1Cc1ccc(Br)nc1", "note": "[Compound 4.29, 6-[(6-Bromopyridin-3-yl)methyl]-5-methyl-[1,2,5]oxadiazolo[3,4-b]pyridin-7-amine]", "IC50": 1.27},
      {"compound": "Cc1nc2nonc2c(N)c1Cc1ccc(Br)cc1", "note": "[Compound 1.1, 6-[(4-Bromophenyl)methyl]-5-methyl-[1,2,5]oxadiazolo[3,4-b]pyridin-7-amine]", "IC50": 0.225},
      {"compound": "Cc1nc2nonc2c(N)c1Cc1ccc(C(C)(C)C#N)nc1", "note": "[Compound 4.24, 2-[5-({7-Amino-5-methyl-[1,2,5]oxadiazolo[3,4-b]pyridin-6-yl}methyl)pyridin-2-yl]-2-methylpropanenitrile]", "IC50": 0.838},
      {"compound": "Cc1nc2nonc2c(N)c1Cc1ccc(Cl)nc1", "note": "[Compound 4.18, 6-[(6-Chloropyridin-3-yl)methyl]-5-methyl-[1,2,5]oxadiazolo[3,4-b]pyridin-7-amine]", "IC50": 1.65},
      {"compound": "Cc1nc2nonc2c(N)c1Cc1cccn2c(C)nnc12", "note": "[Compound 4.9, 5-Methyl-6-({3-methyl-[1,2,4]triazolo[4,3-a]pyridin-8-yl}methyl)-[1,2,5]oxadiazolo[3,4-b]pyridin-7-amine]", "IC50": 4.01},
      {"compound": "Cc1nc2nonc2c(N)c1Cc1ccc(F)c(Br)c1", "note": "[Compound 4.44, 6-(3-Bromo-4-fluoro-benzyl)-5-methyl-[1,2,5]oxadiazolo[3,4-b]pyridin-7-ylamine]", "IC50": 0.573},
      {"compound": "Cc1nc2nonc2c(N)c1Cc1cnc(Cl)cc1C(F)F", "note": "[Compound 25.2, 6-{[6-Chloro-4-(difluoromethyl)pyridin-3-yl]methyl}-5-methyl-[1,2,5]oxadiazolo[3,4-b]pyridin-7-amine]", "IC50": 4.84},
      {"compound": "Cc1nc2nonc2c(N)c1Cc1ccc(Cl)c(C(=O)N(C)C)c1", "note": "[Compound 15.5, 5-({7-Amino-5-methyl-[1,2,5]oxadiazolo[3,4-b]pyridin-6-yl}methyl)-2-chloro-N,N-dimethylbenzamide]", "IC50": 0.475},
      {"compound": "Cc1nc2nonc2c(N)c1Cc1ccc(C#N)nc1", "note": "[Compound 4.6, 5-({7-Amino-5-methyl-[1,2,5]oxadiazolo[3,4-b]pyridin-6-yl}methyl)pyridine-2-carbonitrile]", "IC50": 3.1},
      {"compound": "Cc1nc2nonc2c(N)c1Cc1ccc(Cl)c(C(N)=O)c1", "note": "[Compound 15.3, 5-({7-Amino-5-methyl-[1,2,5]oxadiazolo[3,4-b]pyridin-6-yl}methyl)-2-chlorobenzamide]", "IC50": 1.58},
      {"compound": "COc1cc(Cc2c(Cl)nc3nonc3c2N)ccc1Br", "note": "[Compound 23.6, 6-[(4-Bromo-3-methoxyphenyl)methyl]-5-chloro-[1,2,5]oxadiazolo[3,4-b]pyridin-7-amine]", "IC50": 0.078},
      {"compound": "Cc1nc2nonc2c(N)c1Cc1ccc(C(=O)NCC2CN(C)CCO2)cc1", "note": "(centres unmarked) [Compound 14.3, 4-({7-Amino-5-methyl-[1,2,5]oxadiazolo[3,4-b]pyridin-6-yl}methyl)-N-[(4-methylmorpholin-2-yl)methyl]benzamide]", "IC50": 2.93},
      {"compound": "Cc1nc2nonc2c(N)c1Cc1ccc(-c2cn(C)nc2C(F)(F)F)nc1", "note": "[Compound 12.7, 5-Methyl-6-({6-[1-methyl-3-(trifluoromethyl)-1H-pyrazol-4-yl]pyridin-3-yl}methyl)-[1,2,5]oxadiazolo[3,4-b]pyridin-7-amine]", "IC50": 1.17}
    ]}
  ]
}
